Measurements taken from the supplement of paper PMC10307832.

Legend:
Test in all cases: relative viability (nuclei count vs DMSO), 5 days (fraction); higher = more cells survive
IA-LM = test system: IA-LM
Procedure, shortened: (§1)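 Nuclei were stained with Hoechst during a one-step fixation (final 0.05% Triton X-100, 1% formaldehyde, 1 ug/ml Hoechst) carried out 5 days after dosing, then counted on 4× images. The cells, lung cancer lines in 1536-well plates, had been dosed by pin tool the day after seeding with one drug alone or a fixed anchor-drug dose plus five library-drug doses (not always all listed) in √10 steps. Relative viability is the nuclei count in treated wells divided by that in vehicle wells, and each value is the median of duplicate plates.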

NCI-H1299 = test system: NCI-H1299
Procedure, shortened: as §1

EBC-1 = test system: EBC-1
Procedure, shortened: as §1

NCI-H1648 = test system: NCI-H1648
Procedure, shortened: as §1

NCI-H1623 = test system: NCI-H1623
Procedure, shortened: as §1

Calu-6 = test system: Calu-6
Procedure, shortened: as §1

For `Cc1cn(-c2cc(NC(=O)c3ccc(C)c(Nc4nccc(-c5cccnc5)n4)c3)cc(C(F)(F)F)c2)cn1` [Nilotinib] + CS(=O)(=O)CCNCc1ccc(-c2ccc3ncnc(Nc4ccc(OCc5cccc(F)c5)c(Cl)c4)c3c2)o1 [Lapatinib] (partner 2 µM), the relative viability (IA-LM; first compound 0.003162 µM) was 0.936, the relative viability (IA-LM; first compound 0.01 µM) was 0.755 and the relative viability (IA-LM; first compound 0.03162 µM) was 0.459. For the same molecule, the relative viability (IA-LM; first compound 0.1 µM) was 0.794, the relative viability (NCI-H1299; first compound 0.001 µM) was 0.967 and the relative viability (NCI-H1299; first compound 0.003162 µM) was 0.974. It also gave a relative viability (NCI-H1299; first compound 0.01 µM) of 0.992, a relative viability (NCI-H1299; first compound 0.03162 µM) of 1.05 and a relative viability (NCI-H1299; first compound 0.1 µM) of 0.98. The relative viability (EBC-1; first compound 0.001 µM) was 0.208, the relative viability (EBC-1; first compound 0.003162 µM) was 0.187 and the relative viability (EBC-1; first compound 0.01 µM) was 0.179. For the same molecule, the relative viability (EBC-1; first compound 0.03162 µM) was 0.186 and the relative viability (EBC-1; first compound 0.1 µM) was 0.162.

With `Nc1cccc2c1CN(C1CCC(=O)NC1=O)C2=O` (centres undefined) [Lenalidomide] + CC(=O)c1c(C)c2cnc(Nc3ccc(N4CCNCC4)cn3)nc2n(C2CCCC2)c1=O [Palbociclib] (partner 0.5 µM) the relative viability (NCI-H1648; first compound 0.253 µM) was 0.304, the relative viability (NCI-H1648; first compound 2.53 µM) was 0.282 and the relative viability (NCI-H1648; first compound 8 µM) was 0.253.

With `Nc1cccc2c1CN(C1CCC(=O)NC1=O)C2=O` (centres undefined) [Lenalidomide] + COc1cccc2cc(-c3nc([C@H]4CC[C@H](C(=O)O)CC4)n4ncnc(N)c34)[nH]c12 [OSI-027] (partner 0.5 µM) the relative viability (NCI-H1623; first compound 0.253 µM) was 0.433, the relative viability (NCI-H1623; first compound 0.8 µM) was 0.418 and the relative viability (NCI-H1623; first compound 2.53 µM) was 0.375. The relative viability (NCI-H1623; first compound 8 µM) was 0.392, the relative viability (NCI-H1648; first compound 0.253 µM) was 0.272 and the relative viability (NCI-H1648; first compound 0.8 µM) was 0.22. For the same molecule, the relative viability (NCI-H1648; first compound 2.53 µM) was 0.253 and the relative viability (NCI-H1648; first compound 8 µM) was 0.227.

In the case of `Nc1cccc2c1CN(C1CCC(=O)NC1=O)C2=O` (centres undefined) [Lenalidomide] + C[C@]1(O)C[C@@H](c2nc(-c3ccc4ccc(-c5ccccc5)nc4c3)c3c(N)nccn32)C1 [Linsitinib] (partner 1 µM), the relative viability (IA-LM; first compound 0.253 µM) was 0.605, the relative viability (IA-LM; first compound 0.8 µM) was 0.468 and the relative viability (IA-LM; first compound 2.53 µM) was 0.667. It also gave a relative viability (IA-LM; first compound 8 µM) of 0.49, a relative viability (Calu-6; first compound 0.253 µM) of 0.836 and a relative viability (Calu-6; first compound 0.8 µM) of 0.984. For the same molecule, the relative viability (Calu-6; first compound 2.53 µM) was 1.12, the relative viability (Calu-6; first compound 8 µM) was 0.818 and the relative viability (NCI-H1299; first compound 0.253 µM) was 0.954. The relative viability (NCI-H1299; first compound 0.8 µM) was 0.968, the relative viability (NCI-H1299; first compound 2.53 µM) was 1.06 and the relative viability (NCI-H1299; first compound 8 µM) was 0.852. For the same molecule, the relative viability (EBC-1; first compound 0.253 µM) was 0.826, the relative viability (EBC-1; first compound 0.8 µM) was 0.849 and the relative viability (EBC-1; first compound 2.53 µM) was 1.09. The relative viability (EBC-1; first compound 8 µM) was 0.774.

Molecule `Nc1cccc2c1CN(C1CCC(=O)NC1=O)C2=O` (centres undefined) [Lenalidomide] + NC(=O)Nc1cc(-c2cccc(F)c2)sc1C(=O)N[C@H]1CCCNC1 [AZD7762] (partner 0.2 µM) has a relative viability (NCI-H1648; first compound 0.253 µM) of 0.591, a relative viability (NCI-H1648; first compound 2.53 µM) of 0.626 and a relative viability (NCI-H1648; first compound 8 µM) of 0.689.

Work on `Nc1cccc2c1CN(C1CCC(=O)NC1=O)C2=O` (centres undefined) [Lenalidomide] + CC(=O)Nc1cccc(-n2c(=O)n(C3CC3)c(=O)c3c(Nc4ccc(I)cc4F)n(C)c(=O)c(C)c32)c1 [Trametinib] (partner 0.02 µM) yielded a relative viability (NCI-H1648; first compound 0.253 µM) of 0.556, a relative viability (NCI-H1648; first compound 2.53 µM) of 0.597 and a relative viability (NCI-H1648; first compound 8 µM) of 0.476.

In the case of `Nc1cccc2c1CN(C1CCC(=O)NC1=O)C2=O` (centres undefined) [Lenalidomide] + Cc1nc(Nc2ncc(C(=O)Nc3c(C)cccc3Cl)s2)cc(N2CCN(CCO)CC2)n1 [Dasatinib] (partner 0.075 µM), the relative viability (NCI-H1623; first compound 0.253 µM) was 0.51, the relative viability (NCI-H1623; first compound 0.8 µM) was 0.466 and the relative viability (NCI-H1623; first compound 2.53 µM) was 0.523. The relative viability (NCI-H1623; first compound 8 µM) was 0.497.

In the case of `Nc1cccc2c1CN(C1CCC(=O)NC1=O)C2=O` (centres undefined) [Lenalidomide] + Nc1nc2[nH]cc(CCc3ccc(C(=O)N[C@@H](CCC(=O)O)C(=O)O)cc3)c2c(=O)[nH]1 [Pemetrexed] (partner 0.2 µM), the relative viability (NCI-H1648; first compound 0.253 µM) was 0.765, the relative viability (NCI-H1648; first compound 2.53 µM) was 0.711 and the relative viability (NCI-H1648; first compound 8 µM) was 0.747.

For `Nc1cccc2c1CN(C1CCC(=O)NC1=O)C2=O` (centres undefined) [Lenalidomide] + CS(=O)(=O)N1CCN(Cc2cc3nc(-c4cccc5[nH]ncc45)nc(N4CCOCC4)c3s2)CC1 [Pictilisib] (partner 1 µM), the relative viability (IA-LM; first compound 0.253 µM) was 0.37, the relative viability (IA-LM; first compound 0.8 µM) was 0.375 and the relative viability (IA-LM; first compound 2.53 µM) was 0.338. For the same molecule, the relative viability (IA-LM; first compound 8 µM) was 0.359, the relative viability (Calu-6; first compound 0.253 µM) was 0.861 and the relative viability (Calu-6; first compound 0.8 µM) was 1.01. The relative viability (Calu-6; first compound 2.53 µM) was 1.06, the relative viability (Calu-6; first compound 8 µM) was 0.969 and the relative viability (NCI-H1299; first compound 0.253 µM) was 0.733. The relative viability (NCI-H1299; first compound 0.8 µM) was 0.923, the relative viability (NCI-H1299; first compound 2.53 µM) was 0.931 and the relative viability (NCI-H1299; first compound 8 µM) was 0.963. It also gave a relative viability (EBC-1; first compound 0.253 µM) of 0.398, a relative viability (EBC-1; first compound 0.8 µM) of 0.323 and a relative viability (EBC-1; first compound 2.53 µM) of 0.498. It also gave a relative viability (EBC-1; first compound 8 µM) of 0.512.

With `Nc1cccc2c1CN(C1CCC(=O)NC1=O)C2=O` (centres undefined) [Lenalidomide] + O=C(CCCCCCC(=O)Nc1ccccc1)NO [Vorinostat] (partner 1 µM) the relative viability (IA-LM; first compound 0.253 µM) was 0.852, the relative viability (IA-LM; first compound 0.8 µM) was 0.969 and the relative viability (IA-LM; first compound 2.53 µM) was 1.22. The relative viability (IA-LM; first compound 8 µM) was 0.814, the relative viability (NCI-H1648; first compound 0.253 µM) was 0.513 and the relative viability (NCI-H1648; first compound 2.53 µM) was 0.885. It also gave a relative viability (NCI-H1648; first compound 8 µM) of 0.392.

`Nc1cccc2c1CN(C1CCC(=O)NC1=O)C2=O` (centres undefined) [Lenalidomide] + N=C(N)NC(=N)NCCc1ccccc1 [Phenformin] (partner 250 µM) showed a relative viability (NCI-H1623; first compound 0.253 µM) of 0.572, a relative viability (NCI-H1623; first compound 0.8 µM) of 0.576 and a relative viability (NCI-H1623; first compound 2.53 µM) of 0.601. It also gave a relative viability (NCI-H1623; first compound 8 µM) of 0.544.

Molecule `Nc1cccc2c1CN(C1CCC(=O)NC1=O)C2=O` (centres undefined) [Lenalidomide] + Nc1ncn([C@H]2C[C@H](O)[C@@H](CO)O2)c(=O)n1 [Decitabine] (partner 2 µM) has a relative viability (NCI-H1648; first compound 0.253 µM) of 0.562, a relative viability (NCI-H1648; first compound 2.53 µM) of 0.557 and a relative viability (NCI-H1648; first compound 8 µM) of 0.411.
